In patent US20150105252A1, “SUBSTITUTED PYRAZOLES AS HERBICIDES” (E I DU PONT DE NEMOURS AND COMPANY, priority 2013, published 2015):

Experiments:
wheat = assay: Test A preemergence; format: in vivo, Triticum aestivum; conditions: Preemergence, 1000 g ai/ha; 0 to 100 scale, 0 no effect, 100 complete control
Summary of the method: (§1)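 Scoring was visual, on a scale where 100 means complete control and 0 means no effect, comparing treated with untreated plants around 10 days post-application. Compounds in surfactant-containing non-phytotoxic solvent were sprayed onto soil preemergence or onto one- to two-leaf seedlings (2–10 cm) postemergence.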

crabgrass, large = assay: Test C postemergence; format: in vivo, Digitaria sanguinalis; conditions: for Crabgrass, Large plant response rating: Postemergence, 31 g ai/ha, scale 0 to 100; for Plant response rating, Crabgrass, Large: postemergence
Source text: (§2) Seeds of plant species selected from blackgrass (Alopecurus myosuroides), ryegrass, Italian (Italian ryegrass, Lolium multiflorum), wheat (winter wheat, Triticum aestivum), galium (catchweed bedstraw, Galium aparine), corn (Zea mays), crabgrass, large (large crabgrass, Digitaria sanguinalis), foxtail, giant (giant foxtail, Setaria faberii), johnsongrass (Sorghum halepense), lambsquarters (Chenopodium album), morningglory (Ipomoea coccinea), nutsedge, yellow (yellow nutsedge, Cyperus esculentus), pigweed (redroot pigweed, Amaranthus retroflexus), ragweed (common ragweed, Ambrosia elation), soybean (Glycine max), barnyardgrass (Echinochloa crus-galli), oilseed rape (Brassica napus), waterhemp (common waterhemp, Amaranthus rudis), oat, wild (wild oat, Avena fatua), kochia (Kochia scoparia), Surinam grass (Brachiaria decumbens), foxtail, green (green foxtail, Setaria viridis), goosegrass (Eleusine indica), bromegrass, downy (downy bromegrass, Bromus tectorum), nightshade (eastern black nightshade, Solanum ptycanthum), cocklebur (common cocklebur, Xanthium strumarium), cupgrass, woolly (woolly cupgrass, Eriochloa villosa), bermudagrass (Cynodon dactylon), sunflower, (common oilseed sunflower, Helianthus annuus), Russian thistle (Salsola kali), and velvetleaf (Abutilon theophrasti) were planted into a blend of loam soil and sand and treated preemergence with test chemicals formulated in a non-phytotoxic solvent mixture which included a surfactant.
(§3) At the same time, plants selected from these crop and weed species and also chickweed (common chickweed, Stellaria media), canarygrass (littleseed canarygrass, Phalaris minor), and deadnettle (henbit deadnettle, Lamium amplexicaule), were planted in pots containing Redi-Earth® planting medium (Scotts Company, 14111 Scottslawn Road, Marysville, Ohio 43041) comprising spaghnum peat moss, vermiculite, wetting agent and starter nutrients and treated with postemergence applications of test chemicals formulated in the same manner. Plants ranged in height from 2 to 18 cm (1- to 4-leaf stage) for postemergence treatments. Treated plants and controls were maintained in a greenhouse for 13 to 15 days, after which time all species were compared to controls and visually evaluated. Plant response ratings, summarized in Table C, are based on a scale of 0 to 100 where 0 is no effect and 100 is complete control. A dash (-) response means no test result.

velvetleaf = assay: Test A preemergence; format: in vivo, Abutilon theophrasti; conditions: Preemergence, 1000 g ai/ha; 0 to 100 scale, 0 no effect, 100 complete control
Summary of the method: as §1

pigweed = assay: Test A preemergence; format: in vivo, Amaranthus retroflexus; conditions: Preemergence, 1000 g ai/ha; 0 to 100 scale, 0 no effect, 100 complete control
Summary of the method: as §1

foxtail, giant = assay: Test A preemergence; format: in vivo, Setaria faberii; conditions: Preemergence, 1000 g ai/ha; 0 to 100 scale, 0 no effect, 100 complete control
Summary of the method: as §1

johnsongrass = assay: Test C postemergence; format: in vivo, Sorghum halepense; conditions: for Johnsongrass plant response rating: Postemergence, 31 g ai/ha, scale 0 to 100; for Plant response rating, Johnsongrass: postemergence
Source text: as §2, §3

blackgrass = assay: Test C postemergence; format: in vivo, Alopecurus myosuroides; conditions: for Blackgrass plant response rating: Postemergence, 31 g ai/ha, scale 0 to 100; for Plant response rating, Blackgrass: postemergence
Source text: as §2, §3

[1] = 250 g ai/ha, scale 0 to 100 (0 no effect, 100 complete control)
[2] = 62 g ai/ha, scale 0 to 100, 0 no effect, 100 complete control
[3] = 125 g ai/ha, scale 0 to 100, 0 no effect, 100 complete control

Structure (SMILES) | Wheat plant response rating (wheat) | Crabgrass, Large plant response rating (crabgrass, large) | Plant response rating, Crabgrass, Large (crabgrass, large; [1]) | Plant response rating, Crabgrass, Large (crabgrass, large; [2]) | Plant response rating, Crabgrass, Large (crabgrass, large; [3]) | Velvetleaf plant response rating (velvetleaf) | Pigweed plant response rating (pigweed) | Foxtail, Giant plant response rating (foxtail, giant) | Johnsongrass plant response rating (johnsongrass) | Plant response rating, Johnsongrass (johnsongrass; [1]) | Plant response rating, Johnsongrass (johnsongrass; [2]) | Plant response rating, Johnsongrass (johnsongrass; [3]) | Blackgrass plant response rating (blackgrass) | Plant response rating, Blackgrass (blackgrass; [1]) | Plant response rating, Blackgrass (blackgrass; [2]) | Plant response rating, Blackgrass (blackgrass; [3])
CCc1cc(C(=O)NCC(F)(F)F)nn1Cc1cccc(OC(F)(F)F)c1 [Compound 20] | 20 | 10 | 45 | 20 | 35 | 70 | 100 | 100 | 0 | 10 | 0 | 5 | 5 | 20 | 5 | 15
CCCNC(=O)c1cc(CC)n(Cc2cccc(OC(F)(F)F)c2)n1 [Compound 27] | 20 | 0 | 45 | 5 | 10 | 30 | 90 | 90 | 0 | 5 | 0 | 5 | 10 | 20 | 15 | 15
